Data reported in ChEMBL document CHEMBL3046635, “Synthesis and Herbicidal Activity of New Pyrazole-4-carboxamide Derivatives” (J Pestic Sci, 2004).
Calls of active or inactive are those of the source.

What follows are compounds tested on Oryza sativa (assay: Phytotoxicity against Oryza sativa cv. Koshihikari (rice) at 500 g a.i/ha measured after 14 days). Conditions: in vivo, 336 h.
Assay type: organism-based
In the case of `Cn1cc(C(=O)NOc2ccc(C(C)(C)C)cc2)c(OCc2cccc(C(F)(F)F)c2)n1`, the Activity is reported as “Non-toxic”.

The compounds below were run on Elatine triandra (assay: Post-emergence herbicidal activity against Elatine triandra assessed as bleaching of stem/leaf parts). Conditions: not given.
Assay type: functional, organism-based
In the case of `Cn1cc(C(=O)NOc2ccc(C(C)(C)C)cc2)c(OCc2cccc(C(F)(F)F)c2)n1`, the Activity is reported as “Active”.

The compounds below were run on Echinochloa oryzicola (assay: Pre-emergence herbicidal activity against Echinochloa oryzicola at 500 g a.i/ha measured after 14 days). Conditions: not given.
Assay type: functional, organism-based
For `Cn1cc(C(=O)NOc2ccc(C(C)(C)C)cc2)c(OCc2cccc(C(F)(F)F)c2)n1`, the Activity was “inactive”.

What follows are compounds tested on Pontederia vaginalis (assay: Pre-emergence herbicidal activity against Monochoria vaginalis at 500 g a.i/ha measured after 14 days). Conditions: not given.
Assay type: functional, organism-based
With `Cn1cc(C(=O)NOc2ccc(C(C)(C)C)cc2)c(OCc2cccc(C(F)(F)F)c2)n1` the Activity was “inactive”.

These compounds were tested on Ammannia multiflora (assay: Pre-emergence herbicidal activity against Ammannia multiflora at 500 g a.i/ha measured after 14 days). Conditions: not given.
Assay type: functional, organism-based
In the case of `Cn1cc(C(=O)NOc2ccc(C(C)(C)C)cc2)c(OCc2cccc(C(F)(F)F)c2)n1`, the Activity is reported as “inactive”.

Each compound was assayed on Eleocharis acicularis (assay: Post-emergence herbicidal activity against Eleocharis acicularis assessed as bleaching of stem/leaf parts). Conditions: not given.
Assay type: functional, organism-based
With `Cn1cc(C(=O)NOc2ccc(C(C)(C)C)cc2)c(OCc2cccc(C(F)(F)F)c2)n1` the Activity was “Active”.

The compounds below were run on Echinochloa oryzicola (assay: Pre-emergence herbicidal activity against Echinochloa oryzicola assessed as bleaching of stem/leaf parts). Conditions: not given.
Assay type: functional, organism-based
For `Cn1cc(C(=O)NOc2ccc(C(C)(C)C)cc2)c(OCc2cccc(C(F)(F)F)c2)n1`, the Activity was “Active”.

These compounds were tested on Cyperus difformis (assay: Pre-emergence herbicidal activity against Cyperus difformis at 500 g a.i/ha measured after 14 days). Conditions: not given.
Assay type: functional, organism-based
`Cn1cc(C(=O)NOc2ccc(C(C)(C)C)cc2)c(OCc2cccc(C(F)(F)F)c2)n1` was tested, and the Activity was “inactive”.

The compounds below were run on Rotala indica (assay: Post-emergence herbicidal activity against Rotala indica assessed as bleaching of stem/leaf parts). Conditions: not given.
Assay type: functional, organism-based
`Cn1cc(C(=O)NOc2ccc(C(C)(C)C)cc2)c(OCc2cccc(C(F)(F)F)c2)n1` was tested, and the Activity was “Active”.

What follows are compounds tested on Schoenoplectiella juncoides (assay: Pre-emergence herbicidal activity against Schoenoplectiella juncoides at 500 g a.i/ha measured after 14 days). Conditions: not given.
Assay type: functional, organism-based
`Cn1cc(C(=O)NOc2ccc(C(C)(C)C)cc2)c(OCc2cccc(C(F)(F)F)c2)n1` was tested, and the Activity was “inactive”.

Each compound was assayed on Elatine triandra (assay: Pre-emergence herbicidal activity against Elatine triandra at 500 g a.i/ha measured after 14 days). Conditions: not given.
Assay type: functional, organism-based
In the case of `Cn1cc(C(=O)NOc2ccc(C(C)(C)C)cc2)c(OCc2cccc(C(F)(F)F)c2)n1`, the Activity is reported as “inactive”.

The compounds below were run on Echinochloa oryzicola (assay: Post-emergence herbicidal activity against Echinochloa oryzicola assessed as bleaching of stem/leaf parts). Conditions: not given.
Assay type: functional, organism-based
With `Cn1cc(C(=O)NOc2ccc(C(C)(C)C)cc2)c(OCc2cccc(C(F)(F)F)c2)n1` the Activity was “Active”.

Each compound was assayed on Cyperus difformis (assay: Pre-emergence herbicidal activity against Cyperus difformis assessed as bleaching of stem/leaf parts). Conditions: not given.
Assay type: functional, organism-based
`Cn1cc(C(=O)NOc2ccc(C(C)(C)C)cc2)c(OCc2cccc(C(F)(F)F)c2)n1` was tested, and the Activity was “Active”.

What follows are compounds tested on Schoenoplectiella juncoides (assay: Pre-emergence herbicidal activity against Schoenoplectiella juncoides assessed as bleaching of stem/leaf parts). Conditions: not given.
Assay type: functional, organism-based
With `Cn1cc(C(=O)NOc2ccc(C(C)(C)C)cc2)c(OCc2cccc(C(F)(F)F)c2)n1` the Activity was “Active”.

The compounds below were run on Rotala indica (assay: Pre-emergence herbicidal activity against Rotala indica assessed as bleaching of stem/leaf parts). Conditions: not given.
Assay type: functional, organism-based
With `Cn1cc(C(=O)NOc2ccc(C(C)(C)C)cc2)c(OCc2cccc(C(F)(F)F)c2)n1` the Activity was “Active”.

These compounds were tested on Lindernia procumbens (assay: Pre-emergence herbicidal activity against Lindernia procumbens at 500 g a.i/ha measured after 14 days). Conditions: not given.
Assay type: functional, organism-based
For `Cn1cc(C(=O)NOc2ccc(C(C)(C)C)cc2)c(OCc2cccc(C(F)(F)F)c2)n1`, the Activity was “inactive”.

Each compound was assayed on Eleocharis acicularis (assay: Pre-emergence herbicidal activity against Eleocharis acicularis assessed as bleaching of stem/leaf parts). Conditions: not given.
Assay type: functional, organism-based
For `Cn1cc(C(=O)NOc2ccc(C(C)(C)C)cc2)c(OCc2cccc(C(F)(F)F)c2)n1`, the Activity was “Active”.

Each compound was assayed on Eleocharis acicularis (assay: Pre-emergence herbicidal activity against Eleocharis acicularis at 500 g a.i/ha measured after 14 days). Conditions: not given.
Assay type: functional, organism-based
With `Cn1cc(C(=O)NOc2ccc(C(C)(C)C)cc2)c(OCc2cccc(C(F)(F)F)c2)n1` the Activity was “inactive”.

These compounds were tested on Lindernia procumbens (assay: Pre-emergence herbicidal activity against Lindernia procumbens assessed as bleaching of stem/leaf parts). Conditions: not given.
Assay type: functional, organism-based
`Cn1cc(C(=O)NOc2ccc(C(C)(C)C)cc2)c(OCc2cccc(C(F)(F)F)c2)n1` was tested, and the Activity was “Active”.

Each compound was assayed on Schoenoplectiella juncoides (assay: Post-emergence herbicidal activity against Schoenoplectiella juncoides assessed as bleaching of stem/leaf parts). Conditions: not given.
Assay type: functional, organism-based
With `Cn1cc(C(=O)NOc2ccc(C(C)(C)C)cc2)c(OCc2cccc(C(F)(F)F)c2)n1` the Activity was “Active”.

These compounds were tested on Ammannia multiflora (assay: Post-emergence herbicidal activity against Ammannia multiflora assessed as bleaching of stem/leaf parts). Conditions: not given.
Assay type: functional, organism-based
With `Cn1cc(C(=O)NOc2ccc(C(C)(C)C)cc2)c(OCc2cccc(C(F)(F)F)c2)n1` the Activity was “Active”.

Each compound was assayed on Lindernia procumbens (assay: Post-emergence herbicidal activity against Lindernia procumbens assessed as bleaching of stem/leaf parts). Conditions: not given.
Assay type: functional, organism-based
For `Cn1cc(C(=O)NOc2ccc(C(C)(C)C)cc2)c(OCc2cccc(C(F)(F)F)c2)n1`, the Activity was “Active”.

Each compound was assayed on Rotala indica (assay: Pre-emergence herbicidal activity against Rotala indica at 500 g a.i/ha measured after 14 days). Conditions: not given.
Assay type: functional, organism-based
`Cn1cc(C(=O)NOc2ccc(C(C)(C)C)cc2)c(OCc2cccc(C(F)(F)F)c2)n1` was tested, and the Activity was “inactive”.

What follows are compounds tested on Cyperus difformis (assay: Post-emergence herbicidal activity against Cyperus difformis assessed as bleaching of stem/leaf parts). Conditions: not given.
Assay type: functional, organism-based
With `Cn1cc(C(=O)NOc2ccc(C(C)(C)C)cc2)c(OCc2cccc(C(F)(F)F)c2)n1` the Activity was “Active”.

Each compound was assayed on Ammannia multiflora (assay: Pre-emergence herbicidal activity against Ammannia multiflora assessed as bleaching of stem/leaf parts). Conditions: not given.
Assay type: functional, organism-based
For `Cn1cc(C(=O)NOc2ccc(C(C)(C)C)cc2)c(OCc2cccc(C(F)(F)F)c2)n1`, the Activity was “Active”.

These compounds were tested on Pontederia vaginalis (assay: Post-emergence herbicidal activity against Monochoria vaginalis assessed as bleaching of stem/leaf parts). Conditions: not given.
Assay type: functional, organism-based
For `Cn1cc(C(=O)NOc2ccc(C(C)(C)C)cc2)c(OCc2cccc(C(F)(F)F)c2)n1`, the Activity was “Active”.

The compounds below were run on Elatine triandra (assay: Pre-emergence herbicidal activity against Elatine triandra assessed as bleaching of stem/leaf parts). Conditions: not given.
Assay type: functional, organism-based
In the case of `Cn1cc(C(=O)NOc2ccc(C(C)(C)C)cc2)c(OCc2cccc(C(F)(F)F)c2)n1`, the Activity is reported as “Active”.

Each compound was assayed on Pontederia vaginalis (assay: Pre-emergence herbicidal activity against Monochoria vaginalis assessed as bleaching of stem/leaf parts). Conditions: not given.
Assay type: functional, organism-based
With `Cn1cc(C(=O)NOc2ccc(C(C)(C)C)cc2)c(OCc2cccc(C(F)(F)F)c2)n1` the Activity was “Active”.
